“Also recorded” adds a separate entry of the source.
Legend:
CYP3A = assay: Metabolism by and induction of hepatic enzyme CYP3A; type: in vitro ADME
[1] = Exposure of Compound 1 upon multiple-dose administration; type: in vivo
[2] = Single-dose pharmacokinetics of Compound 1 with or without cobicistat pretreatment in healthy subjects; type: in vivo, human
Procedure: (§1) Healthy subjects were treated with Compound 1 with or without pretreatment with cobicistat. A single 400 mg dose of Compound 1 was administered under fasted conditions. There was a 7-day washout between administrations of the two single doses of Compound 1. Compound 1 was administered alone on Day 1 of Period 1 and administered in the presence of cobicistat on Day 1 of Period 2. Cobicistat was administered at a dose of 150 mg once daily for three days, with the third dose preceding the single dose of Compound 1 by two hours. Blood samples were collected for pharmacokinetic analysis of Compound 1 on Day 1 of each period at the following time points 0 (predose), 0.5, 1, 1.5, 2, 3, 4, 6, 8, 10, and 24 hours after the single dose of Compound 1.

[3] = Adverse events in healthy subjects treated with Compound 1 with and without cobicistat; type: in vivo, human
Procedure: as §1
All six subjects were males between the ages of 31 and 52 years. Three of the 6 subjects (50%) treated with Compound 1 with and without cobicistat reported a total of 6 adverse events. Diarrhea, reported in 2 subjects, was the only adverse event reported by more than one subject. The other adverse events reported by a single subject each included: abdominal pain, back pain, groin pain, and upper respiratory tract infection. Three of the 6 adverse events were considered to be related to study drug: concurrent events of diarrhea and abdominal pain and the other case of diarrhea. All adverse events were reported in Period 2, after dosing of all study drugs had been completed.

[4] = single 400 mg Compound 1 with cobicistat 150 mg pretreatment vs alone
[5] = single 400 mg Compound 1 with cobicistat 150 mg pretreatment vs alone, lower bound over all subjects
[6] = 6 healthy male subjects, Compound 1 with and without cobicistat

## COc1cc(C)[nH]c(=O)c1CNC(=O)c1c(C)n([C@H](C)C2CCN(CC(F)(F)F)CC2)c2ccccc12 [Compound 1, (R)—N-((4-methoxy-6-methyl-2-oxo-1,2-dihydropyridin-3-yl)methyl)-2-methyl-1-(1-(1-(2,2,2-trifluoroethyl)piperidin-4-yl)ethyl)-1H-indole-3-carboxamide]
CYP3A
  CYP3A induction: stronger inducer of CYP3A
  Primary metabolizing enzyme: primarily metabolized by the hepatic enzyme CYP3A
[1]
  Reduction in AUC with multiple doses: approximately 60%
[2]; male, human, plasma, oral, all subjects treated with Compound 1 and cobicistat
  half-life: < 5 h
[2]; [4]
  Clearance decrease in the presence of cobicistat: 6.9 fold
  Effect of cobicistat on Tmax: unaffected
  Effect of cobicistat on terminal half-life (T1/2): unaffected; also recorded: little or no effect
[2]; [5]
  AUC increase in the presence of cobicistat, all subjects (least): ≥ 4.9 fold
  Cmax increase in the presence of cobicistat, all subjects (least): ≥ 2.8 fold
  Cmin increase in the presence of cobicistat, all subjects (least): ≥ 19 fold
[2]; single dose
  Exposure of Compound 1 400 mg with cobicistat 150 mg in healthy subjects compared with single 1600 mg dose of Compound 1 alone in patients with lymphoma: remarkably similar
[3]; [6]
  Number of subjects reporting diarrhea: 2 subjects
  Subjects reporting adverse events: 50%
  Total number of adverse events reported: 6
[3]; with the exception of a moderate case of upper respiratory tract infection
  Severity of adverse events: mild in severity

Source: patent US20210000815A1, “PHARMACOKINETIC ENHANCEMENT OF EZH2 INHIBITORS THROUGH COMBINATION THERAPIES” (Constellation Pharmaceuticals, Inc., priority 2017, published 2021)
